US20120142735A1, “DISUBSTITUTED [4-(5-AMINOMETHYL-PHENYL)-PIPERIDIN-1-YL]- 1H-INDOL-3-YL]-METHANONES” (SANOFI, priority 2009, published 2012)
Values joined by “and” are separate entries in the source; they are usually repeats but may differ in a detail not shown here. Identical values can stand only once. Counter-ions that a name gives are not always drawn. Like-named read-outs stand apart in the source and are kept apart here. Values belong to the molecule of their own block, whether it stands above or below them.

Biological target: T1, recombinant human β tryptase (Homo sapiens, UniProt P20231)
T1 construct: host or cells: yeast cells
T1 sequence (P20231 31-275): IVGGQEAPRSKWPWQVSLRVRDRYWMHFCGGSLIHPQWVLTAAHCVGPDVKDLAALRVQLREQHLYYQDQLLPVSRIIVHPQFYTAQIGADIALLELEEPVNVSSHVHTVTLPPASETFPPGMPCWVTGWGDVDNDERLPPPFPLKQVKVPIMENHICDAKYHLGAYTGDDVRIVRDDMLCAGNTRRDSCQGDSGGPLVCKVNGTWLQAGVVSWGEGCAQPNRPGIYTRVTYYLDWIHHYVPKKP
Assay: Tryptase primary screen (chromogenic assay), IC50 and Ki determination
Type: biochemical
Settings: substrate S2366 0.5 mM (2×Km), room temperature, Ki=IC50/(1+[Substrate]/Km)
Experimental: Tryptase inhibition activity is confirmed using either isolated human lung tryptase or recombinant human β tryptase expressed in yeast cells. Essentially equivalent results are obtained using isolated native enzyme or the expressed enzyme. The assay procedure employs a 96 well microplate (Costar 3590) using L-pyroglutamyl-L-prolyl-L-arginine-para-nitroanilide (S2366: Quadratech) as substrate (essentially as described by McEuen et. al. Biochem Pharm, 1996, 52, pages 331-340). Assays are performed at room temperature using 0.5 mM substrate (2×Km) and the microplate is read on a microplate reader (Beckman Biomek Plate reader) at 405 nm wavelength.
Materials and Methods for Tryptase primary screen (Chromogenic Assay)
S2366 (Stock solutions of 2.5 mM).
Purified recombinant beta Tryptase Stocks of 310 μg/mL.
• Add 60 μL of diluted substrate (final concentration of 500 μM in assay buffer) to each well • Add compound in duplicates, final concentration of 20 μM, volume 20 μL • Add enzyme at a final concentration of 50 ng/mL in a volume of 20 μL • Total volume for each well is 100 μL • Agitate briefly to mix and incubate at room temp in the dark for 30 minutes • Read absorbencies at […]
Each plate has the following controls: • Totals: 60 μL of substrate, 20 μL of buffer (with 0.2% final concentration of DMSO), • 20 μL of enzyme • Non-specific: 60 μL of substrate, 40 μL of buffer (with 0.2% DMSO) • Totals: 60 μL of substrate, 20 μL of buffer (No DMSO), 20 μL of enzyme • Non-specific: 60 μL of substrate, 40 μL of buffer (No DMSO)
The protocol is essentially the same as above except that the compound is added in duplicates at the following final concentrations: 0.01, 0.03, 0.1, 0.3, 1, 3, 10 μM (All dilutions carried out manually). For every assay, whether single point or IC50 determination, a standard compound is used to derive IC50 for comparison. From the IC50 value, the Ki can be calculated using the following formula: Ki=IC50/(1+[Substrate]/Km).

Ki (read-out: Tryptase Ki): 25 nM
Structure (SMILES): COCCn1cc(C(=O)N2CCC(c3cc(CN)ccc3F)CC2)c2c(F)ccc(F)c21 [Example 17, [4-(5-Aminomethyl-2-fluoro-phenyl)-piperidin-1-yl]-[4,7-difluoro-1-(2-methoxy-ethyl)-1H-indol-3-yl]-methanone]

Structure (SMILES): COCCn1cc(C(=O)N2CCC(c3cc(CN)ccc3F)CC2)c2c(C(F)(F)F)ccc(F)c21 [Example 13, [4-(5-Aminomethyl-2-fluoro-phenyl)-piperidin-1-yl]-[7-fluoro-1-(2-methoxy-ethyl)-4-trifluoromethyl-1H-indol-3-yl]-methanone hydrochloride]
Ki (Tryptase Ki): 129 nM

Structure (SMILES): COCCn1cc(C(=O)N2CCC(c3cc(CN)ccc3F)CC2)c2c(F)ccc(C)c21 [Example 4, [4-(5-Aminomethyl-2-fluoro-phenyl)-piperidin-1-yl]-[4-fluoro-1-(2-methoxy-ethyl)-7-methyl-1H-indol-3-yl]-methanone hydrochloride]
Ki (Tryptase Ki): 26 nM

Structure (SMILES): COCCn1cc(C(=O)N2CCC(c3cc(CN)ccc3F)CC2)c2c(OC(F)(F)F)ccc(Cl)c21 [Example 10, [4-(5-Aminomethyl-2-fluoro-phenyl)-piperidin-1-yl]-[7-chloro-1-(2-methoxy-ethyl)-4-trifluoromethoxy-1H-indol-3-yl]-methanone hydrochloride]
Ki (Tryptase Ki): 146 nM and 122 nM

Structure (SMILES): COCCn1cc(C(=O)N2CCC(c3cc(CN)ccc3F)CC2)c2c(F)c(F)ccc21 [Example 19, [4-(5-Aminomethyl-2-fluoro-phenyl)-piperidin-1-yl]-[4,5-difluoro-1-(2-methoxy-ethyl)-1H-indol-3-yl]-methanone hydrochloride]
Ki (Tryptase Ki): 142 nM

Structure (SMILES): COCCn1cc(C(=O)N2CCC(c3cc(CN)ccc3F)CC2)c2cc(F)cc(C)c21 [Example 3, [4-(5-Aminomethyl-2-fluoro-phenyl)-piperidin-1-yl]-[5-fluoro-1-(2-methoxy-ethyl)-7-methyl-1H-indol-3-yl]-methanone hydrochloride]
Ki (Tryptase Ki): 35 nM

Structure (SMILES): COCCn1cc(C(=O)N2CCC(c3cc(CN)ccc3F)CC2)c2cc(OC)c(OC)cc21 [Example 20, [4-(5-Aminomethyl-2-fluoro-phenyl)-piperidin-1-yl]-[5,6-dimethoxy-1-(2-methoxy-ethyl)-1H-indol-3-yl]-methanone hydrochloride]
Ki (Tryptase Ki): 90 nM

Structure (SMILES): CCCn1cc(C(=O)N2CCC(c3cc(CN)ccc3F)CC2)c2c(OC(F)(F)F)ccc(F)c21 [Example 11, [4-(5-Aminomethyl-2-fluoro-phenyl)-piperidin-1-yl]-(1-propyl-7-fluoro-4-trifluoromethoxy-1H-indol-3-yl)-methanone hydrochloride]
Ki (Tryptase Ki): 208 nM and 186 nM

Structure (SMILES): COCCn1cc(C(=O)N2CCC(c3cc(CN)ccc3F)CC2)c2c(C)ccc(F)c21 [Example 15, [4-(5-Aminomethyl-2-fluoro-phenyl)-piperidin-1-yl]-[7-fluoro-1-(2-methoxy-ethyl)-4-methyl-1H-indol-3-yl]-methanone hydrochloride]
Ki (Tryptase Ki): 45 nM

Structure (SMILES): COCCn1cc(C(=O)N2CCC(c3cc(CN)ccc3F)CC2)c2c(Cl)ccc(Cl)c21 [Example 8, [4-(5-Aminomethyl-2-fluoro-phenyl)-piperidin-1-yl]-[4,7-dichloro-1-(2-methoxy-ethyl)-1H-indol-3-yl]-methanone hydrochloride]
Ki (Tryptase Ki): 134 nM and 74 nM

Structure (SMILES): COCCn1cc(C(=O)N2CCC(c3cc(CN)ccc3F)CC2)c2cc(Cl)cc(C)c21 [Example 1, [4-(5-Aminomethyl-2-fluoro-phenyl)-piperidin-1-yl]-[5-chloro-1-(2-methoxy-ethyl)-7-methyl-1H-indol-3-yl]-methanone hydrochloride]
Ki (Tryptase Ki): 116 nM

Structure (SMILES): COCCn1cc(C(=O)N2CCC(c3cc(CN)ccc3F)CC2)c2c(Cl)ccc(C)c21 [Example 6, [4-(5-Aminomethyl-2-fluoro-phenyl)-piperidin-1-yl]-[4-chloro-1-(2-methoxy-ethyl)-7-methyl-1H-indol-3-yl]-methanone hydrochloride]
Ki (Tryptase Ki): 35 nM

Structure (SMILES): CCCCn1cc(C(=O)N2CCC(c3cc(CN)ccc3F)CC2)c2c(OC(F)(F)F)ccc(F)c21 [Example 7, [4-(5-Aminomethyl-2-fluoro-phenyl)-piperidin-1-yl]-(1-butyl-7-fluoro-4-trifluoromethoxy-1H-indol-3-yl)-methanone hydrochloride]
Ki (Tryptase Ki): 365 nM

Structure (SMILES): COCCn1cc(C(=O)N2CCC(c3cc(CN)ccc3F)CC2)c2c(Cl)ccc(OC(F)(F)F)c21 [Example 12, [4-(5-Aminomethyl-2-fluoro-phenyl)-piperidin-1-yl]-[4-chloro-1-(2-methoxy-ethyl)-7-trifluoromethoxy-1H-indol-3-yl]-methanone hydrochloride]
Ki (Tryptase Ki): 171 nM

Structure (SMILES): COCCn1cc(C(=O)N2CCC(c3cc(CN)ccc3F)CC2)c2c(F)cc(F)cc21 [Example 18, [4-(5-Aminomethyl-2-fluoro-phenyl)-piperidin-1-yl]-[4,6-difluoro-1-(2-methoxy-ethyl)-1H-indol-3-yl]-methanone hydrochloride]
Ki (Tryptase Ki): 192 nM

Structure (SMILES): COCCn1cc(C(=O)N2CCC(c3cc(CN)ccc3F)CC2)c2c(Cl)cc(Cl)cc21 [Example 16, [4-(5-Aminomethyl-2-fluoro-phenyl)-piperidin-1-yl]-[4,6-dichloro-1-(2-methoxy-ethyl)-1H-indol-3-yl]-methanone hydrochloride]
Ki (Tryptase Ki): 649 nM

Structure (SMILES): Cc1ccc(F)c2c(C(=O)N3CCC(c4cc(CN)ccc4F)CC3)cn(CCOC(F)(F)F)c12 [Example 22]
Ki (Tryptase Ki): 731 nM

Structure (SMILES): COCCn1cc(C(=O)N2CCC(c3cc(CN)ccc3F)CC2)c2c(F)ccc(Cl)c21 [Example 9, [4-(5-Aminomethyl-2-fluoro-phenyl)-piperidin-1-yl]-[7-chloro-4-fluoro-1-(2-methoxy-ethyl)-1H-indol-3-yl]-methanone hydrochloride]
Ki (Tryptase Ki): 49 nM and 32 nM

Structure (SMILES): NCc1ccc(F)c(C2CCN(C(=O)c3cn(CCOC(F)(F)F)c4c(F)ccc(OC(F)(F)F)c34)CC2)c1 [Example 21, [4-(5-Aminomethyl-2-fluoro-phenyl)-piperidin-1-yl]-[7-fluoro-4-trifluoromethoxy-1-(2-trifluoromethoxy-ethyl)-1H-indol-3-yl]-methanone hydrochloride]
Ki (Tryptase Ki): 487 nM

Structure (SMILES): COCCn1cc(C(=O)N2CCC(c3cc(CN)ccc3F)CC2)c2c(F)ccc(OC(F)(F)F)c21 [Example 5, [4-(5-Aminomethyl-2-fluoro-phenyl)-piperidin-1-yl]-[4-fluoro-1-(2-methoxy-ethyl)-7-trifluoromethoxy-1H-indol-3-yl]-methanone hydrochloride]
Ki (Tryptase Ki): 322 nM

Structure (SMILES): COCCn1cc(C(=O)N2CCC(c3cc(CN)ccc3F)CC2)c2c(C(F)(F)F)ccc(OC)c21 [Example 14, [4-(5-Aminomethyl-2-fluoro-phenyl)-piperidin-1-yl]-[7-methoxy-1-(2-methoxy-ethyl)-4-trifluoromethyl-1H-indol-3-yl]-methanone hydrochloride]
Ki (Tryptase Ki): 48 nM

Structure (SMILES): COCCn1cc(C(=O)N2CCC(c3cc(CN)ccc3F)CC2)c2ccc(F)c(C)c21 [Example 2, [4-(5-Aminomethyl-2-fluoro-phenyl)-piperidin-1-yl]-[6-fluoro-1-(2-methoxy-ethyl)-7-methyl-1H-indol-3-yl]-methanone hydrochloride]
Ki (Tryptase Ki): 45 nM
